# US20080161344A1, “Melanin Concentrating Hormone Receptor Ligands: Substituted Tetrahydroisoquinoline Analogues” (priority 2004, published 2008)
# Target: MCH receptor (MCH1) (Macaca fascicularis, UniProt A0A2K5VT41)
# Test: Melanin concentrating hormone receptor binding assay (125I-Tyr MCH competition, membranes of transfected HEK293 cells)
# Parameters: species or system Cynomolgus macaque
# Conditions: not given
# Experimental: This Example illustrates a standard assay of melanin concentrating hormone receptor binding that may be used to determine the binding affinity of compounds for the MCH receptor.
# Cynomolgus macaque hypothalamus MCH1 cDNA is prepared and cloned into PCDNA3.1 (INVITROGEN Corp., Carlsbad, Calif.), and HEK293 cells (American Type Culture Collection, Manassas, Va.) are stably transfected with the MCH1 expression vector as described in PCT International Application publication number WO/03/059289, which published on Jul. 24, 2003. The disclosure of WO 03/059289 at page 52 directed to the preparation and storage of the transfected HEK293 cells is hereby incorporated by reference.
# At the time of assay, pellets are thawed by addition of wash buffer (25 mM Hepes with 1.0 mM CaCl2, 5.0 mM MgCl2, 120 mM NaCl, pH 7.4) and homogenized for 30 seconds using a BRINKMAN POLYTRON, setting 5. Cells are centrifuged for 10 minutes at 48,000×g. The supernatant is discarded and the pellet is resuspended in fresh wash buffer, and homogenized again. An aliquot of this membrane homogenate is used to determine protein concentration via the Bradford method (BIO-RAD Protein Assay Kit, #500-0001, BIO-RAD, Hercules, Calif.). By this measure, a 1-liter culture of cells typically yields 50-75 mg of total membrane protein. The homogenate is centrifuged as before and resuspended to a protein concentration of 333 μg/mL in binding buffer (Wash buffer+0.1% BSA and 1.0 μM final phosphoramidon) for an assay volume of 50 μg membrane protein/150 μl binding buffer. Phosphoramidon was from SIGMA BIOCHEMICALS, St. Louis, Mo. (cat# R-7385).
# Competition binding assays are performed at room temperature in Falcon 96 well round bottom polypropylene plates. Each assay well contains 150 μL of MCH receptor-containing membranes described above, 50 μL ^125I-Tyr MCH, 50 μL binding buffer, and 2 μL test compound in DMSO. ^125I-Tyr MCH (specific activity=2200 Ci/mmol) is purchased from NEN (Boston, Mass.) and is diluted in binding buffer to provide a final assay concentration of 30 pM.
# Non-specific binding is defined as the binding measured in the presence of 1 μM unlabeled MCH. MCH is purchased from BACHEM U.S.A., King of Prussia, Pa. (cat #H-1482). Assay wells used to determine MCH binding contain 150 μL of MCH receptor containing membranes, 50 μL ^125I-Tyr MCH, 25 μL binding buffer and 25 μL binding buffer.
# Assay plates are incubated for 1 hour at room temperature. Membranes are harvested onto WALLAC™ glass fiber filters (PERKIN-ELMER, Gaithersburg, Md.) which were pre-soaked with 1.0% PEI (polyethyleneimine) for 2 hours prior to use. Filters are allowed to dry overnight, and then counted in a WALLAC 1205 BETA PLATE counter after addition of WALLAC BETA SCINT™ scintillation fluid.
# For saturation binding, the concentration of ^125I-Tyr MCH is varied from 7 to 1,000 pM. Typically, 11 concentration points are collected per saturation binding curve. Equilibrium binding parameters are determined by fitting the allosteric Hill equation to the measured values with the aid of the computer program FitP™ (BIOSOFT, Ferguson, Mo.).
# Chain of MCH receptor (MCH1) (A0A2K5VT41 entry or part of it): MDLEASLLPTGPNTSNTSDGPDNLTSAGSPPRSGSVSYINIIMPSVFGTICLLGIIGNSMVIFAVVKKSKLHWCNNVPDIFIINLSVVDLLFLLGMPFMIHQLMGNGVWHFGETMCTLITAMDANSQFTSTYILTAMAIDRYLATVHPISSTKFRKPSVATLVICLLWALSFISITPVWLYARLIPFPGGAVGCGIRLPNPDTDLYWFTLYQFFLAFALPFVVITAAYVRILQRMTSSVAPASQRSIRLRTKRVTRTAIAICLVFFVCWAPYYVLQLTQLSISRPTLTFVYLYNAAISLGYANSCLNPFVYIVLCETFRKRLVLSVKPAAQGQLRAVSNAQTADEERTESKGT
row,Structure (SMILES),Ki
1,"COc1cc2c(cc1OC)CN(Cc1cccc(Oc3ccc(C)cc3)c1)CC2 [Compound 3, 6,7-dimethoxy-2-(3-p-tolyloxy-benzyl)-1,2,3,4-tetrahydroisoquinoline]",< 1000 nM
2,"COc1cc2c(cc1OC)CN(Cc1cccc(Oc3ccc(C(C)(C)C)cc3)c1)CC2 [Compound 1, 2-[3-(4-tert-Butyl-phenoxy)-benzyl]-6,7-dimethoxy-1,2,3,4-tetrahydroisoquinoline]",< 1000 nM
3,"COc1cc2c(cc1OC)CN(Cc1ccnc(Oc3ccc(C(C)(C)C)cc3)c1)CC2 [Compound 5, 2-[2-(4-tert-Butyl-phenoxy)-pyridin-4-ylmethyl]-6,7-dimethoxy-1,2,3,4-tetrahydroisoquinoline]",< 1000 nM

# Same assay, conditions: MCH receptor binding assay of Example 2; class symbol; read-out: Ki
row,Structure (SMILES),Ki
1,"COc1cc2c(cc1OC)CN(Cc1cccc(Oc3ccccc3)c1)CC2 [Compound 43, 6,7-Dimethoxy-2-(3-phenoxy-benzyl)-1,2,3,4-tetrahydroisoquinoline]",< 1000 nM
2,"COc1cc2c(cc1OC)CN(Cc1cccc(Oc3ccc(C(F)(F)F)cc3)c1)CC2 [Compound 50, 6,7-Dimethoxy-2-[3-(4-trifluoromethyl-phenoxy)-benzyl]-1,2,3,4-tetrahydroisoquinoline]",< 1000 nM
3,"COc1cc2c(cc1OC)CN(Cc1cccc(Oc3ccc(C(C)C)cc3)c1)CC2 [Compound 23, 2-[3-(4-Isopropyl-phenoxy)-benzyl]-6,7-dimethoxy-1,2,3,4-tetrahydroisoquinoline]",< 1000 nM
4,"COc1cc2c(cc1OC)CN(Cc1cccc(Oc3ccc(Cl)cc3)c1)CC2 [Compound 21, 2-[3-(4-Chloro-phenoxy)-benzyl]-6,7-dimethoxy-1,2,3,4-tetrahydroisoquinoline]",< 1000 nM
5,"COc1cc2c(cc1OC)CN(Cc1cccc(Oc3ccc(OC(F)(F)F)cc3)c1)CC2 [Compound 49, 6,7-Dimethoxy-2-[3-(4-trifluoromethoxy-phenoxy)-benzyl]-1,2,3,4-tetrahydroisoquinoline]",< 1000 nM
6,"COc1cc2c(cc1OC)CN(Cc1cccc(Cc3ccccc3)c1)CC2 [Compound 10, 2-(3-Benzyl-benzyl)-6,7-dimethoxy-1,2,3,4-tetrahydroisoquinoline]",< 1000 nM
7,"COc1cc2c(cc1OC)CN(Cc1cccc(Oc3ccc(C#N)cc3)c1)CC2 [Compound 42, 4-[3-(6,7-Dimethoxy-3,4-dihydro-1H-isoquinolin-2-ylmethyl)-phenoxy]-benzonitrile]",< 1000 nM
8,"CCOc1ccc(Oc2cccc(CN3CCc4cc(OC)c(OC)cc4C3)c2)cc1 [Compound 22, 2-[3-(4-Ethoxy-phenoxy)-benzyl]-6,7-dimethoxy-1,2,3,4-tetrahydroisoquinoline]",< 1000 nM
9,"CCOc1cc2c(cc1OC)CCN(Cc1cccc(Oc3ccc(C(C)(C)C)cc3)c1)C2 [Compound 31, 2-[3-(4-tert-Butyl-phenoxy)-benzyl]-7-ethoxy-6-methoxy-1,2,3,4-tetrahydroisoquinoline]",< 1000 nM
10,"CCOc1cc2c(cc1OC)CCN(Cc1ccnc(Oc3ccc(C(C)C)cc3)c1)C2 [Compound 53, 7-Ethoxy-2-[2-(4-isopropyl-phenoxy)-pyridin-4-ylmethyl]-6-methoxy-1,2,3,4-tetrahydroisoquinoline]",< 1000 nM
11,"COc1cc2c(cc1OC)CN(Cc1cccc(Oc3ccc(C(C)(C)C)cc3)n1)CC2 [Compound 34, 2-[6-(4-tert-Butyl-phenoxy)-pyridin-2-ylmethyl]-6,7-dimethoxy-1,2,3,4-tetrahydroisoquinoline]",< 1000 nM
12,"COc1cc2c(cc1OC)CN(Cc1ccnc(Oc3ccc(C(C)C)cc3)c1)CC2 [Compound 19, 2-[2-(4-Isopropyl-phenoxy)-pyridin-4-ylmethyl]-6,7-dimethoxy-1,2,3,4-tetrahydroisoquinoline]",< 1000 nM
13,"CCOc1cc2c(cc1OCC)CN(Cc1cccc(Oc3ccc(C(C)(C)C)cc3)c1)CC2 [Compound 26, 2-[3-(4-tert-Butyl-phenoxy)-benzyl]-6,7-diethoxy-1,2,3,4-tetrahydroisoquinoline]",< 1000 nM
14,"CC(C)(C)c1ccc(Oc2cccc(CN3CCc4cc5c(cc4C3)OCO5)c2)cc1 [Compound 52, 6-[3-(4-tert-Butyl-phenoxy)-benzyl]-5,6,7,8-tetrahydro-[1,3]dioxolo[4,5-g]isoquinoline]",< 1000 nM
15,"CCOc1cc2c(cc1OC)CN(Cc1cccc(Oc3ccc(C(C)(C)C)cc3)c1)CC2 [Compound 29, 2-[3-(4-tert-Butyl-phenoxy)-benzyl]-6-ethoxy-7-methoxy-1,2,3,4-tetrahydroisoquinoline]",< 1000 nM
16,"COc1ccc(Oc2cccc(CN3CCc4cc(OC)c(OC)cc4C3)c2)cc1 [Compound 47, 6,7-Dimethoxy-2-[3-(4-methoxy-phenoxy)-benzyl]-1,2,3,4-tetrahydroisoquinoline]",< 1000 nM
